Measurements from patent publication US9144557B2, “Hematopoietic growth factor mimetic small molecule compounds and their uses” (Ligand Pharmaceuticals Inc., priority 2009, dated 2015).

Tested on: UT7/EPO Cell line
Test: Cell Proliferation Assay (UT7/EPO, ViaLight Plus)
Type: cell-based, human
Settings: proliferative effect; compounds at 10 uM; UT7/EPO cells starved of EPO overnight; 72 hours at 37° C.; ViaLight Plus kit
Description: The primary testing for the examplfied compounds was performed in UT7/EPO Cell line. UT7/EPO is human leukemia cell line, obtained from Dr. Norio Komatsu (Blood, Vol 82 (2), pp 456-464, 1993). These cells express endogenous EPO receptor and are dependant upon EPO for growth and proliferation. Briefly, the cells were starved of EPO overnight and plated in 96 or 384 well plates. The compounds were added to the cells at 10 uM concentration. The plates were then incubated at 37° C. for 72 hours. The proliferative effect of the compounds was measured by a commercially available kit from Lonza (ViaLight Plus).

Compound	Activity (%)
O=C(Nc1ccc2[nH]c(-c3ccc(C(=O)NC4CC4)cc3)nc2c1)c1ccc(N2CCC(O)C2)cc1 (stereo not drawn) [Compound 240, N-cyclopropyl-4-(5-(4-(3-hydroxypyrrolidin-1-yl)benzamido)-1H-benzo[d]imidazol-2-yl)benzamide]	15
O=C(Nc1ccc(N2CCNCC2)cc1)c1ccc(-c2nc3cc(NC(=O)c4ccc(N5CCNCC5)cc4)ccc3[nH]2)cc1 [Compound 251, 4-(piperazin-1-yl)-N-(2-(4-((4-(piperazin-1-yl)phenyl)carbamoyl)phenyl)-1H-benzo[d]imidazol-5-yl)benzamide]	14
O=C(Nc1ccc2[nH]c(-c3ccc(N4CCOCC4)nc3)nc2c1)c1ccc(N2CCOCC2)cc1 [Compound 256, 4-morpholino-N-(2-(6-morpholinopyridin-3-yl)-1H-benzo[d]imidazol-5-yl)benzamide]	12
COc1ccc(/C=C/c2nc3cc(-c4ccc5nc(/C=C/c6ccc(OC)cc6)[nH]c5c4)ccc3[nH]2)cc1 [Compound 262, 2,2′-bis((E)-4-methoxystyryl)-1H,3′H-5,5′-bibenzo[d]imidazole]	20
O=C(Nc1ccc2[nH]c(-c3cccc(-c4nc5cc(NC(=O)c6ccc(N7CCCC7)cc6)ccc5[nH]4)c3)nc2c1)c1ccc(N2CCCC2)cc1 [Compound 268, N,N′-(2,2′-(1,3-phenylene)bis(1H-benzo[d]imidazole-5,2-diyl))bis(4-(pyrrolidin-1-yl)benzamide)]	15
CN(C)c1ccc(-c2nc3cc(NC(=O)c4ccc(C(=O)NN)cc4)ccc3[nH]2)cc1 [Compound 273, N-(2-(4-(dimethylamino)phenyl)-1H-benzo[d]imidazol-5-yl)-4-(hydrazinecarbonyl)benzamide]	16
COc1cccc(/C=N/NC(=O)c2ccc(C(=O)Nc3ccc4nc(-c5ccc(N(C)C)cc5)[nH]c4c3)cc2)c1 [Compound 278, (E)-N-(2-(4-(dimethylamino)phenyl)-1H-benzo[d]imidazol-6-yl)-4-(2-(3-methoxybenzylidene)hydrazinecarbonyl)benzamide]	23
CN(C)c1ccc(-c2nc3cc(C(=O)Nc4ccc(NC(=O)c5ccc6[nH]c(-c7ccc(N(C)C)cc7)nc6c5)cc4)ccc3[nH]2)cc1 [Compound 283, N,N′-(1,4-phenylene)bis(2-(4-(dimethylamino)phenyl)-1H-benzo[d]imidazole-5-carboxamide)]	19
O=C(Nc1ccc2[nH]c(-c3ccc(N4CCOCC4)cc3)nc2c1)c1ccc2nc(-c3ccc(N(CCO)CCO)cc3)[nH]c2c1 [Compound 288, 2-(4-(bis(2-hydroxyethyl)amino)phenyl)-N-(2-(4-morpholinophenyl)-1H-benzo[d]imidazol-5-yl)-1H-benzo[d]imidazole-6-carboxamide]	17
N#Cc1ccc(-c2nc3ccc(C(=O)Nc4ccc5[nH]c(-c6ccc(OCCO)cc6)nc5c4)cc3[nH]2)cc1 [Compound 294, 2-(4-cyanophenyl)-N-(2-(4-(2-hydroxyethoxy)phenyl)-1H-benzo[d]imidazol-5-yl)-1H-benzo[d]imidazole-6-carboxamide]	11
O=C(Nc1ccc2[nH]c(-c3ccc(N4CCOCC4)cc3)nc2c1)c1ccc2nc(-c3ccc(OCCO)cc3)[nH]c2c1 [Compound 299, 2-(4-(2-hydroxyethoxy)phenyl)-N-(2-(4-morpholinophenyl)-1H-benzo[d]imidazol-5-yl)-1H-benzo[d]imidazole-6-carboxamide]	15
CN(C)c1ccc(C(=O)Nc2ccc(C(O)c3ccc(NC(=O)c4ccc(N(C)C)cc4)cc3)cc2)cc1 [Compound 305, N,N′-((hydroxymethylene)bis(4,1-phenylene))bis(4-(dimethylamino)benzamide)]	18
CN(C)c1ccc(C(=O)Nc2ccc(C(=NOC(=O)Cc3ccccc3)c3ccc(NC(=O)c4ccc(N(C)C)cc4)cc3)cc2)cc1 [Compound 310, N,N′-((((2-phenylacetoxy)imino)methylene)bis(4,1-phenylene))bis(4-(dimethylamino)benzamide)]	22
CON=C(c1ccc(NC(=O)c2ccc(N3CCC(O)C3)cc2)cc1)c1ccc(NC(=O)c2ccc(N3CCC(O)C3)cc2)cc1 (stereo not drawn) [Compound 315, N,N′-(((methoxyimino)methylene)bis(4,1-phenylene))bis(4-(3-hydroxypyrrolidin-1-yl)benzamide)]	16
O=C(Nc1ccc(C(=O)c2ccc(NC(=O)c3ccc(N4CCCCC4)cc3)cc2)cc1)c1ccc(N2CCCCC2)cc1 [Compound 322, N,N′-(carbonylbis(4,1-phenylene))bis(4-(piperidin-1-yl)benzamide)]	20
O=C(Nc1ccc(C(=O)c2ccc(NC(=O)c3ccc(N(CCO)CCO)cc3)cc2)cc1)c1ccc(N(CCO)CCO)cc1 [Compound 327, N,N′-(carbonylbis(4,1-phenylene))bis(4-(bis(2-hydroxyethyl)amino)benzamide)]	17
CON=C(c1ccc(NC(=O)c2ccc(N(C)CCO)cc2)cc1)c1ccc(NC(=O)c2ccc(N(C)CCO)cc2)cc1 [Compound 332, N,N′-(((methoxyimino)methylene)bis(4,1-phenylene))bis(4-((2-hydroxyethyl)(methyl)amino)benzamide)]	18

Compound	Activity (%)
CON=C(c1ccc(NC(=O)c2ccc(N3CCN(C(=O)C4CC4)CC3)cc2)cc1)c1ccc(NC(=O)c2ccc(N3CCN(C(=O)C4CC4)CC3)cc2)cc1 [Compound 338, N,N′-(((methoxyimino)methylene)bis(4,1-phenylene))bis(4-(4-(cyclopropanecarbonyl)piperazin-1-yl)benzamide)]	19
O=C(Nc1ccc(C(=O)c2ccc(NC(=O)c3ccc4[nH]ccc4c3)cc2)cc1)c1ccc2[nH]ccc2c1 [Compound 345, N,N′-(4,4′-Carbonylbis(4,1-phenylene))bis(1H-indole-5-carboxamide)]	19
CC(=O)Nc1ccc(C(=O)c2ccc(NC(=O)c3ccc4c(ccn4C)c3)cc2)cc1 [Compound 349]	11
CN(C)c1ccc(C(=O)Nc2ccc(C(=O)c3ccc(NC(=O)c4ccc(F)cc4)cc3)cc2)cc1 [Compound 354, 4-(Dimethylamino)-N-(4-(4-(4-fluorobenzamido)benzoyl)phenyl)benzamide]	20
O=C(Nc1ccc(C(=O)c2ccc(NC(=O)C3CC3)cc2)cc1)c1ccc(N2CCOCC2)cc1 [Compound 359]	19
O=C(Nc1ccc(Nc2ccc(NC(=O)c3ccc(N4CCC(O)CC4)cc3)cc2)cc1)c1ccc(N2CCC(O)CC2)cc1 [Compound 364, N,N′-(4,4′-Azanediylbis(4,1-phenylene))bis(4-(4-hydroxypiperidino)benzamide)]	16
CN(C)c1ccc(C(=O)Nc2ccc(-n3ccc4cc(NC(=O)c5ccc(N(C)C)cc5)ccc43)cc2)cc1 [Compound 370, N-(1-(4-(4-Dimethylaminobenzamido)phenyl)-1H-indol-5-yl)-4-dimethylaminobenzamide]	18
CN(C)c1ccc(C(=O)Nc2ccc3c(cnn3-c3ccc(NC(=O)c4ccccc4)cc3)c2)cc1 [Compound 375, N-(1-(4-Benzamidophenyl)-1H-indazol-5-yl)-4-dimethylaminobenzamide]	11
Nc1ccc(-n2ncc3cc(NC(=O)c4ccc(N5CCOCC5)cc4)ccc32)cc1 [Compound 381, N-(1-(4-Aminophenyl)-1H-indazol-5-yl)-4-morpholinobenzamide]	15
CN(C)c1ccc(C(=O)Nc2ccc(-n3ncc4cc(NC(=O)C5CC5)ccc43)cc2)cc1 [Compound 384, N-(4-(5-(cyclopropanecarboxamido)-1H-indazol-1-yl)phenyl)-4-(dimethylamino)benzamide]	11
N#Cc1ccc(-n2ncc3cc(NC(=O)c4ccc(N5CCC(O)CC5)cc4)ccc32)cc1 [Compound 404, N-(1-(4-Cyanophenyl)-1H-indazol-5-yl)-4-(4-hydroxypiperidino)benzamide]	14
CN(C)c1ccc(C(=O)Nc2ccc(Sc3ccc(NC(=O)c4ccc(N(C)C)cc4)cc3)cc2)cc1 [Compound 408, N,N′-(4,4′-Thiobis(4,1-phenylene))bis(4-(dimethylamino)benzamide)]	13
O=C(Nc1ccc2[nH]c(-c3ccc(N4CCC5(CC4)OCCO5)cc3)nc2c1)c1ccc(N2CCOCC2)cc1 [Compound 413, N-(2-(4-(1,4-Dioxa-8-azaspiro[4,5]decan-8-yl)phenyl)-1H-benzimidazol-5-yl)-4-morpholinobenzamide]	19
O=C(Nc1ccc2[nH]c(-c3ccc(N4CCOCC4)s3)nc2c1)c1ccc(N2CCOCC2)cc1 [Compound 418, N-(2-(2-Morpholinothien-5-yl)-1H-benzimidazol-5-yl)-4-morpholinobenzamide]	11
CN1CCN(c2ccc(-c3nc4cc(NC(=O)c5ccc(N6CCOCC6)cc5)ccc4[nH]3)cc2)CC1 [Compound 423, N-(2-(4-(4-Methylpiperazino)phenyl)-1H-benzimidazol-5-yl)-4-morpholinobenzamide]	15
O=C(Nc1ccc2[nH]c(-c3ccc(N4CCOCC4)cc3)nc2c1)c1ccccc1O [Compound 427, N-(2-(4-Morpholinophenyl)-1H-benzimidazol-5-yl)-2-hydroxybenzamide]	15
